According to patent publication US9181218B2, “Compounds for improved stem cell differentiation into hepatocytes” (Hoffmann-La Roche Inc., priority 2013, dated 2015):

System: interferon-stimulated genes (ISGs)
Assay: Microarray analysis of iCell Hepatocytes treated with the compound of example 1
Format: cell-based, Human
Settings: DAY 7
Text: iCell Hepatocytes treated with the compound of example 1 results in the up and down-regulation of a host of genes; including a kinetic effect on interferon-stimulated gene (ISGs) expression. See FIGS. 15-I and 15-II, 16-I and 16-II and 18 and Table 1.

O=C(NCc1cccc(F)c1)c1cccc2nc(-c3c(NC[C@@H](O)c4ccccc4)cc[nH]c3=O)[nH]c12 [Example 1, 2-[4-((S)-2-hydroxy-2-phenyl-ethylamino)-2-oxo-1,2-dihydro-pyridin-3-yl]-3H-benzoimidazole-4-carboxylic acid 3-fluoro-benzylamide] was tested. Which “ARHGEF3 Raw Est Fold Change” value did it give?
Its value is −2.76.

And the “ASNS Raw Est Fold Change” value?
Its value is 1.63.

What about the “ATP1B3 Raw Est Fold Change” value of the same molecule?
The value was −1.72.

What about the “ATP10D Raw Est Fold Change” value of the same molecule?
The value was −2.21.

What about the “AXL Raw Est Fold Change” value of the same molecule?
The value was 5.52.

And the “B2M Raw Est Fold Change” value?
Its value is −1.77.

What about the “B4GALT5 Raw Est Fold Change” value of the same molecule?
Its value is −2.50.

And the “BAG1 Raw Est Fold Change” value?
The value was 1.33.

What about the “BCL3 Raw Est Fold Change” value of the same molecule?
Its value is −3.15.

What about the “BHMT Raw Est Fold Change” value of the same molecule?
Its value is 100.46.

And the “BLVRA Raw Est Fold Change” value?
Its value is −2.70.

And the “BRF2 Raw Est Fold Change” value?
Its value is 1.46.

What about the “C1R Raw Est Fold Change” value of the same molecule?
Its value is −2.64.

And the “C1S Raw Est Fold Change” value?
The value was −2.00.

What about the “C4BPA Raw Est Fold Change” value of the same molecule?
The value was −3.52.

And the “C4orf33 Raw Est Fold Change” value?
Its value is 1.65.

What about the “C6orf85 Raw Est Fold Change” value of the same molecule?
Its value is 1.31.

What about the “C10orf10 Raw Est Fold Change” value of the same molecule?
Its value is −6.70.

What about the “CAPN2 Raw Est Fold Change” value of the same molecule?
The value was −1.90.

What about the “CASP1 Raw Est Fold Change” value of the same molecule?
The value was 1.40.

And the “CASP4 Raw Est Fold Change” value?
Its value is −43.41.

What about the “CASP5 Raw Est Fold Change” value of the same molecule?
The value was −11.12.

And the “CCL19 Raw Est Fold Change” value?
Its value is 2.16.

What about the “CCND3 Raw Est Fold Change” value of the same molecule?
The value was −4.18.

What about the “CD3D Raw Est Fold Change” value of the same molecule?
The value was −3.72.

What about the “CD9 Raw Est Fold Change” value of the same molecule?
The value was 4.66.

What about the “CD38 Raw Est Fold Change” value of the same molecule?
Its value is −60.43.

And the “CD47 Raw Est Fold Change” value?
The value was −2.51.

What about the “CD163 Raw Est Fold Change” value of the same molecule?
Its value is 4.54.

And the “CD164 Raw Est Fold Change” value?
The value was −1.47.

And the “CD300LF Raw Est Fold Change” value?
Its value is −15.50.

And the “CEBPD Raw Est Fold Change” value?
The value was −6.95.

And the “CFB Raw Est Fold Change” value?
Its value is −2.96.

And the “CHST12 Raw Est Fold Change” value?
Its value is −1.59.

And the “CKB Raw Est Fold Change” value?
Its value is 2.95.

And the “CLEC2D Raw Est Fold Change” value?
The value was 2.54.

What about the “CLEC4E Raw Est Fold Change” value of the same molecule?
Its value is 4.33.

And the “COL16A1 Raw Est Fold Change” value?
Its value is 1.53.

And the “CPT1A Raw Est Fold Change” value?
Its value is 1.49.

And the “CREB3L3 Raw Est Fold Change” value?
Its value is −4.65.

What about the “CREM Raw Est Fold Change” value of the same molecule?
The value was 1.71.

And the “CRP Raw Est Fold Change” value?
Its value is −63.77.

And the “CRYM Raw Est Fold Change” value?
The value was 3.57.

What about the “CSDA Raw Est Fold Change” value of the same molecule?
Its value is −5.60.

What about the “CTGF Raw Est Fold Change” value of the same molecule?
The value was −3.88.

What about the “CX3CR1 Raw Est Fold Change” value of the same molecule?
The value was 9.27.

What about the “CXCL11 Raw Est Fold Change” value of the same molecule?
The value was 3.15.

And the “CYP1B1 Raw Est Fold Change” value?
Its value is −6.56.

What about the “CYR61 Raw Est Fold Change” value of the same molecule?
The value was −7.93.

And the “DHFR Raw Est Fold Change” value?
The value was 2.31.

What about the “DNAPTP6 Raw Est Fold Change” value of the same molecule?
The value was 2.61.

And the “EFNB2 Raw Est Fold Change” value?
The value was −7.87.

What about the “EGR1 Raw Est Fold Change” value of the same molecule?
The value was −4.88.

What about the “EHHADH Raw Est Fold Change” value of the same molecule?
Its value is 6.99.

What about the “EIF2AK2 Raw Est Fold Change” value of the same molecule?
Its value is −1.14.

And the “EIF2S2 Raw Est Fold Change” value?
The value was 1.81.

What about the “EMP1 Raw Est Fold Change” value of the same molecule?
Its value is 2.60.

What about the “EPAS1 Raw Est Fold Change” value of the same molecule?
The value was −1.83.

And the “EREG Raw Est Fold Change” value?
The value was −21.64.

What about the “ETS2 Raw Est Fold Change” value of the same molecule?
The value was −2.17.

What about the “ETV6 Raw Est Fold Change” value of the same molecule?
Its value is −1.87.

And the “ETV7 Raw Est Fold Change” value?
The value was −3.42.

And the “EWSR1 Raw Est Fold Change” value?
The value was −2.03.

And the “F3 Raw Est Fold Change” value?
The value was 2.54.

And the “FAM70A Raw Est Fold Change” value?
The value was 4.10.

What about the “FAM102A Raw Est Fold Change” value of the same molecule?
Its value is −1.88.

And the “FBXO6 Raw Est Fold Change” value?
Its value is 3.59.

What about the “FCGR1A Raw Est Fold Change” value of the same molecule?
The value was 2.56.

What about the “FER1L3 Raw Est Fold Change” value of the same molecule?
The value was −2.43.

And the “FGG Raw Est Fold Change” value?
The value was −1.22.

And the “FLT1 Raw Est Fold Change” value?
The value was −1.38.

What about the “FNDC3B Raw Est Fold Change” value of the same molecule?
The value was −2.02.

What about the “G6PC Raw Est Fold Change” value of the same molecule?
The value was 6.12.

And the “GALNT2 Raw Est Fold Change” value?
The value was −6.32.

And the “GBP2 Raw Est Fold Change” value?
The value was −4.50.

What about the “GBP3 Raw Est Fold Change” value of the same molecule?
Its value is 2.28.

And the “GCH1 Raw Est Fold Change” value?
The value was 1.83.

And the “GK Raw Est Fold Change” value?
Its value is −2.38.

And the “GLB1 Raw Est Fold Change” value?
Its value is −1.33.

And the “GLUL Raw Est Fold Change” value?
Its value is 3.54.

What about the “GNB1 Raw Est Fold Change” value of the same molecule?
The value was −1.39.

And the “GPR171 Raw Est Fold Change” value?
Its value is 1.93.

What about the “GRN Raw Est Fold Change” value of the same molecule?
Its value is −1.37.

And the “HAO1 Raw Est Fold Change” value?
The value was 3.59.

And the “HBE1 Raw Est Fold Change” value?
The value was −2.67.

What about the “HDAC2 Raw Est Fold Change” value of the same molecule?
Its value is −1.34.

What about the “HEG1 Raw Est Fold Change” value of the same molecule?
The value was −4.07.

And the “HERC6 Raw Est Fold Change” value?
Its value is −1.49.

What about the “HESX1 Raw Est Fold Change” value of the same molecule?
Its value is 3.01.

What about the “HIF1A Raw Est Fold Change” value of the same molecule?
Its value is −4.78.

And the “HK2 Raw Est Fold Change” value?
Its value is −3.18.

And the “HLA-DMA Raw Est Fold Change” value?
The value was −2.39.

What about the “HLA-DOA Raw Est Fold Change” value of the same molecule?
The value was 3.70.

What about the “HPSE Raw Est Fold Change” value of the same molecule?
The value was −2.92.

What about the “ICAM1 Raw Est Fold Change” value of the same molecule?
The value was −9.02.

And the “ID1 Raw Est Fold Change” value?
Its value is −5.53.

What about the “IER3 Raw Est Fold Change” value of the same molecule?
The value was −9.69.

And the “IFI16 Raw Est Fold Change” value?
The value was −11.00.

And the “IFIH1 Raw Est Fold Change” value?
Its value is 1.47.

And the “IFIT1 Raw Est Fold Change” value?
Its value is 16.72.

And the “IFIT3 Raw Est Fold Change” value?
The value was 2.91.

What about the “IFITM1 Raw Est Fold Change” value of the same molecule?
The value was −15.75.

And the “IFITM2 Raw Est Fold Change” value?
The value was −4.71.

What about the “IFITM3 Raw Est Fold Change” value of the same molecule?
The value was −1.73.

And the “IFNGR1 Raw Est Fold Change” value?
The value was −3.76.

And the “IGHM Raw Est Fold Change” value?
Its value is 3.80.

And the “IKZF2 Raw Est Fold Change” value?
Its value is −2.69.

What about the “IL1RN Raw Est Fold Change” value of the same molecule?
The value was −2.59.

And the “IL6ST Raw Est Fold Change” value?
Its value is −1.83.

And the “IL8 Raw Est Fold Change” value?
Its value is −9.22.

What about the “IL17RB Raw Est Fold Change” value of the same molecule?
The value was 1.38.

And the “IL28RA Raw Est Fold Change” value?
The value was 1.55.

What about the “IMPA2 Raw Est Fold Change” value of the same molecule?
The value was −1.62.

What about the “INPP5B Raw Est Fold Change” value of the same molecule?
Its value is 1.29.

And the “IQGAP1 Raw Est Fold Change” value?
Its value is −2.60.

What about the “IRF1 Raw Est Fold Change” value of the same molecule?
The value was 1.36.

And the “IRF7 Raw Est Fold Change” value?
Its value is −3.42.

What about the “IRF8 Raw Est Fold Change” value of the same molecule?
Its value is −1.86.

What about the “ISOC1 Raw Est Fold Change” value of the same molecule?
The value was 1.96.

And the “ITGA2 Raw Est Fold Change” value?
Its value is −5.40.

And the “ITGA6 Raw Est Fold Change” value?
Its value is 1.89.
